One test relates to osteoblast cells. The test is described as follows: Alkaline phosphatase assay in osteoblast cells. The class given is cell-based. As for the experimental part: (§1) The following bioassays were used for bone formation analysis • BMP-2 gene reporter assay (high throughput screen) • Alkaline phosphatase in osteoblast cells • Calvaria organ culture in vitro, bone formation • Injection into calvaria in vivo, bone formation.
(§2) The screening for bone formation was carried out in several stages: • (i) BMP-2 high throughput gene reporter assay of non-hydrolyzed MeOH/H2O extracts (1a) and corresponding glycosidase hydrolyzed extract in ethyl acetate (1b). […] Extracts were assessed in a 4-day in vitro neonatal murine calvarial assay. Bones were incubated with the extracts for the entire 4 days. • (vi) Resorption activity monitored by measuring the amount of type I collagen released in the media as osteoclasts digest bone.

Another test has as its system BMP-2. The test is described as follows: BMP-2 high throughput gene reporter assay. Type of test: cell-based.
Source text: as §1
For example, extracts were screened for bone formation by a high throughput gene reporter assay for BMP-2 followed by an alkaline phosphatase assay and an organ culture model and finally by injection into mice calvaria in vivo. Subfractions of positive extracts and/or pure compounds were further tested for activity. Analysis of the chemical composition of one active extract was performed in order to determine the active compounds.
as §2
On the technique in general: In a reporter assay the amount or activity of a reporter protein is the signal.

Test [1] has as its system neonatal murine calvarial bones. The test is described as follows: Calvaria organ culture in vitro, bone formation. The class given is cell-based. To be noted: phenolics tested at 1-10 μM. As for the experimental part:
as §1, §2

The test system of the next test is OPG/RANKL. The test is described as follows: Osteoblast/osteoclast co-culture system, OPG/RANKL regulation. Type of test: cell-based. As for the experimental part: (§3) The rosemary plant extracts and the pure compounds were tested in an osteoblast/osteoclast co-culture system.
Another test deals with bone formation. The test is described as follows: Bone formation bioassays, assay not specified (anabolic potential).
Source text: as §1
For example, extracts were screened for bone formation by a high throughput gene reporter assay for BMP-2 followed by an alkaline phosphatase assay and an organ culture model and finally by injection into mice calvaria in vivo. Subfractions of positive extracts and/or pure compounds were further tested for activity.
as §3

Test [2] relates to Osteopontin (OPN) mRNA in hPOBtert cells. The test is described as follows: Osteopontin (OPN) mRNA induction by real-time PCR. The class given is cell-based, human. To be noted: 48 h, normalised to β-actin. The protocol:
Cell culture—HPOBTert osteoblasts were seeded on collagen-coated plates and grown in MEM Eagle α Modification medium supplemented with 10% fetal bovine serum, 1% L-glutamine and penicillin/streptomycin, 1 mM β-glycerolphosphate and 50 μg/ml ascorbic acid in a humidified atmosphere of 5% CO2, and 95% air at 37° C. When carnosol and inhibitors were added, an equivalent amount of Me2SO was used as a vehicle control.
Analysis of mRNA levels by Real-Time PCR—Total cellular RNA was extracted using the NucleoSpin RNA II kit (Macherey-Nagel, Switzerland). Equal amounts (1 μg) of RNA from the different treatments were reverse-transcribed using the First Strand cDNA Synthesis kit for RT-PCR (Roche, Mannheim, Germany). For each sample, 2 μl 10× reaction buffer, 4 μl 25 mM MgCl2, 2 μl nucleotide mix, 2 μl random primers, 1 μl RNAse inhibitor and 0.4 μl AMV reverse transcriptase from the kit were added to the sample. The reverse transcriptase was performed at the following thermal cycling conditions (25° C. for 10 min, 42° C. for 60 min, and 75° C. for 5 min) using the PTC-100™ […]).
Real-time Quantitative PCR—Quantitative PCR was performed in 25 μl in triplicates. This consisted of 12.5 μl of Taqman 2× Universal PCR Master Mix, 1.25 μl Assay-on-Demand primers and probes (Applied Biosystems, USA) and 6.25 μl RNAse free water. […]
(In general: Real-time PCR tracks product formation cycle by cycle.)

A further test concerns NQO1 in hPOBtert cells. The test is described as follows: NQO1 induction, immunoblot. Type of test: cell-based, human. As for the experimental part: Preparation of cytoplasmic extracts—hPOBtert cells were washed two times with cold phosphate-buffered saline and harvested with lysis buffer (1% Triton X-100, 20 mM Tris/HCL pH 8, 137 mM Nacl, 10% Glycerol, 2 mM EDTA pH 8, and freshly added proteinase inhibitors: 1 mM phenylmethylsulfonylfluoride, 0.15 U/ml Aprotinin, 10 μg/ml Leupeptide and 10 μg/ml Pepstatin). The samples were centrifuged at 13000 rpm, 4° C. for 5 min and the supernatant transferred to a fresh tube. The protein concentration was determined using the BioRad protein assay. Approximately 50 μg of each sample were mixed with a suitable volume of sample buffer, denatured for 5 min at 95° C. together with 5 μl protein standard, chilled on ice, and loaded on a 10% ready gel, and submitted to immunoblot analysis using anti-NQO1 antibodies.
Immunoblotting—50 μg of protein cell lysate were resolved by SDS-PAGE. After electrophoresis, proteins were transferred to a PVDF membrane (Invitrogen) according to the manufacturer's protocol. Membranes probed for OPN and NQO1 were blocked and probed in 5% milk in Tris-buffered saline/Tween (20 mM Tris base, pH 7.6, 137 mM, 0.1% Tween 20). The blots were visualised by chemiluminescence development, Western blotting detection system (Amersham Biosciences).
Antibodies—The NQO1 (sc-16464)-specific antibodies were purchased from Santa Cruz Biotechnologies Inc (Santa Cruz, Calif.). […]
Background: Immunoblotting shows a protein as a band on a membrane.

`O=c1cc(-c2ccc(O)cc2)oc2cc(O)c(O)c(O)c12` [Scutellarein] gave an ALP activity induction with osteoblast cells (10 μM) of 2X. Also, the BMP-2 induction in the test with BMP-2 (5, 10 μM) is reported as 3-4X.

Take `COc1c(O)cc2oc(-c3ccc(O)c(O)c3)cc(=O)c2c1O` [Eupafolin]: in test [1], the “Bone formation in organ culture” value is on record as “Yes”. Also, the “regulation of OPG/RANKL” value with OPG/RANKL was “activity for regulation of the key cytokines controlling bone remodeling”. Besides, the anabolic potential result in the test on bone formation is reported as “anabolic potential”. Moreover, the ALP activity induction with osteoblast cells (5 μM) is given as 2 X; with osteoblast cells (10 μM), 4 X. In addition, the BMP-2 induction with BMP-2 (2.5-10 μM) is listed as 3-8X.

With `O=c1c(O)c(-c2ccc(O)cc2)oc2cc(O)cc(O)c12` [Kaempferol], in test [1], the “Bone formation in organ culture” value was “Yes”. Also, the anabolic potential result with bone formation is on record as “anabolic potential”. The ALP activity induction in the test with osteoblast cells (2.5-10 μM) is listed as 2-4X. The BMP-2 induction in the test on BMP-2 (1-10 μM) is listed as 2.5X.

Turning to `COc1c(OC2OC(COC(=O)C=Cc3ccc(O)cc3)C(O)C(O)C2O)cc2oc(-c3ccc(O)c(O)c3)cc(=O)c2c1O` (stereo not shown) [6″-Coumaroylnepitrin], in the test on bone formation, the anabolic potential result is “anabolic potential”.

Turning to `COc1cc(C=CC(=O)OCC2OC(Oc3cc4oc(-c5ccc(O)c(O)c5)cc(=O)c4c(O)c3OC)C(O)C(O)C2O)ccc1O` (stereo not shown) [6″-Feruloylnepitrin], the anabolic potential entry in the test with bone formation is “anabolic potential”.

Turning to `CC(C)c1cc2c(c(O)c1O)[C@@]13CCCC(C)(C)[C@@H]1C[C@@H]2OC3=O` [Carnosol], the “Bone formation in organ culture” value in test [1] was “Yes”. In addition, the “regulation of OPG/RANKL” value in the test with OPG/RANKL was “activity for regulation of the key cytokines controlling bone remodeling”. In addition, the anabolic potential result in the test on bone formation is recorded as “anabolic potential”. In the test on osteoblast cells (2.5-10 μM), this compound returned an ALP activity induction of 2X. For the same compound, the “OPN mRNA levels” value in test [2] is listed as “induce OPN expression dose-dependently”. Further, the BMP-2 induction in the test with BMP-2 (2.5-10 μM) is 4.5-7X. The NQO1 expression entry in the test with NQO1 in hPOBtert cells is reported as “induces the expression of the phase II enzyme NQO1”.

With `COc1cc(O)c2c(=O)cc(-c3ccc(O)cc3)oc2c1` [Genkwanin], in the test with osteoblast cells (10 μM), the ALP activity induction is listed as 1.5X. Also, the BMP-2 induction with BMP-2 (5 μM) was found to be 4X.

Consider `COc1ccc(-c2cc(=O)c3c(O)cc(O)cc3o2)cc1` [Acacetin], for which, in the test on osteoblast cells (5-10 μM), the ALP activity induction is listed as 2X. Besides, the BMP-2 induction in the test on BMP-2 (5-10 μM) is 5.5X.

(Values after patent US8299034B2, “Nutritional compositions for promotion of bone growth and maintenance of bone health comprising extracts of for example rosemary or caraway” (Nestec S.A., priority 2008, dated 2012).)
